Read-outs that look alike come from different tables or passages of the source. Numbered stars: 1 amine (or outer) side, 2 acyl side, 3 side chain; on linkers, the order of the positions; unused ones are H or OH. Square brackets hold non-standard residues; d marks the D form. Side chains are listed from the residue outwards. Peptide text beside a SMILES is read from it. * marks the point of attachment. Phe(4-CH2NH2) = NCc1ccc(C[C@H](N)C(=O)O)cc1; C18 diacid = O=C(O)CCCCCCCCCCCCCCCCC(=O)*; γGlu = O=C(O)[C@H](CCC(=O)[*:2])N[*:1]; Met(O2) = CS(=O)(=O)CC[C@H](N)C(=O)O; αMeD = C[C@](N)(CC(=O)O)C(=O)O; AEEA = NCCOCCOCC(=O)O; Aib = CC(C)(N)C(=O)O

Experimental findings from patent US11566057B2, “Long-acting co-agonists of the glucagon and GLP-1 receptors” (Merck Sharp & Dohme Corp., priority 2017, dated 2023) are described below.

One test deals with T1, human GCGR (Homo sapiens, UniProt P47871).
T1 construct: expressed in transfected cells; growth medium holds Blasticidin and Hygromycin
Briefly: cAMP activity assay at the Glucagon receptor (GCGR). The format is cell-based. The note with it: for hGCGR/hGLP1R (hTone): ratio of GCGR EC50 to GLP1R EC50. The method, boiled down: (§1)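 Peptides serially diluted from DMSO (10 points) and added to frozen-stock cells bearing human GLP1R (10,000 cells/well) or GCGR (30,000 cells/well), 1 h at RT, dark. EC50 by four-parameter logistic fit of HitHunter cAMPXS luminescence, read following overnight RT incubation.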

A further test has as its target T2, human GLP1R (Homo sapiens, UniProt P43220).
T2 construct: expressed in transfected cells; growth medium holds Blasticidin and Hygromycin
In words: cAMP activity assay at the GLP-1 receptor (GLP1R). The test is classed as cell-based. The method in brief:
as §1

Where [1] appears, read: cells expressing human GCGR, cAMP production, buffer with or without 20% human serum (not stated which), read-out: GCGR EC50 human.
[2] abbreviates: summary statement: EC50 at each of the glucagon and GLP-1 receptors, read-out: EC50 at the glucagon receptor.
Where [3] appears, read: summary statement: EC50 at each of the glucagon and GLP-1 receptors, read-out: EC50 at the GLP-1 receptor.
[4] abbreviates: cells expressing human GLP1R, cAMP production, buffer with or without 20% human serum (not stated which), read-out: GLP1R EC50 human.

T1 sequence (P47871 26-477): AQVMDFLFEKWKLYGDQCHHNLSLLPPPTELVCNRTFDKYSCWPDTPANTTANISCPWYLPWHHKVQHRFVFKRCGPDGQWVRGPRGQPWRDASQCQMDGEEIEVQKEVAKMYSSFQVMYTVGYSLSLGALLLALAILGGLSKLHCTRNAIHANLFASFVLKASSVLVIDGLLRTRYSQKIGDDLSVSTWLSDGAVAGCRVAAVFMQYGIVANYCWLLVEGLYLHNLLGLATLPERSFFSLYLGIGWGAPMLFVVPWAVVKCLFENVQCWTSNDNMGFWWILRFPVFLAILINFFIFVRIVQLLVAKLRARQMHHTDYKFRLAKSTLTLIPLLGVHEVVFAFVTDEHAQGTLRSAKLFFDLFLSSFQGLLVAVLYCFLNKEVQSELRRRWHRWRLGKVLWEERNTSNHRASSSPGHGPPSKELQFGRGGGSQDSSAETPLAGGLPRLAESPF
T2 sequence (P43220 24-463): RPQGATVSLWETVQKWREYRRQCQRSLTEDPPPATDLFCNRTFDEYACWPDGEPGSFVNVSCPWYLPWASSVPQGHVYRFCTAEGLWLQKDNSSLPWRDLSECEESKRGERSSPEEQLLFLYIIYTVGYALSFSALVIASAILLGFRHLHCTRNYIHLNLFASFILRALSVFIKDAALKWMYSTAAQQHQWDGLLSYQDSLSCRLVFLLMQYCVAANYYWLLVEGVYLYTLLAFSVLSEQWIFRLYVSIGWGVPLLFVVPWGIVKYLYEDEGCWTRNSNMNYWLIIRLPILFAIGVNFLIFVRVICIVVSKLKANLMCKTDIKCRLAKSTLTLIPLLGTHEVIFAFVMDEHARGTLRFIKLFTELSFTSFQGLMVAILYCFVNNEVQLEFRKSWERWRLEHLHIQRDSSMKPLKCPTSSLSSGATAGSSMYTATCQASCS

As for `CC(C)C[C@H](NC(=O)[C@H](Cc1ccc(O)cc1)NC(=O)[C@H](CCCCN)NC(=O)[C@H](CO)NC(=O)[C@H](Cc1ccc(O)cc1)NC(=O)[C@H](CC(=O)O)NC(=O)[C@H](CO)NC(=O)[C@@H](NC(=O)[C@H](Cc1ccccc1)NC(=O)[C@@H](NC(=O)CNC(=O)[C@H](CCC(N)=O)NC(=O)C(C)(C)NC(=O)[C@@H](N)Cc1c[nH]cn1)[C@@H](C)O)[C@@H](C)O)C(=O)N[C@@H](CC(=O)O)C(=O)N[C@@H](C)C(=O)N[C@@H](CCCNC(=N)N)C(=O)N[C@@H](C)C(=O)N[C@@H](C)C(=O)N[C@@H](Cc1ccc(CNC(=O)COCCOCCNC(=O)COCCOCCNC(=O)COCCOCCNC(=O)CC[C@H](NC(=O)CCCCCCCCCCCCCCCCC(=O)O)C(=O)O)cc1)C(=O)N[C@@H](CC(=O)O)C(=O)N[C@@H](Cc1ccccc1)C(=O)N[C@H](C(=O)N[C@@H](CCC(N)=O)C(=O)N[C@@H](Cc1c[nH]c2ccccc12)C(=O)N[C@@H](CC(C)C)C(=O)N[C@@H](CC(C)C)C(=O)N[C@@H](CC(=O)O)C(=O)N[C@H](C(N)=O)[C@@H](C)O)C(C)C` [TP678] (H-H[Aib]QGTFTSDYSKYLDARAA[Phe(4-CH2NH2)]([AEEA-AEEA-AEEA-γGlu-C18 diacid])DFVQWLLDT-NH2; N-terminus assumed), the EC50 on human GCGR (setting [1]) is 0.25 nM; on human GCGR (setting [2]), under 5 nM; at human GLP1R (setting [3]), under 5 nM. Besides, the “hGCGR/hGLP1R (hTone)” value on human GCGR stood at 0.3.
On to `CC(C)C[C@H](NC(=O)[C@H](Cc1ccc(O)cc1)NC(=O)[C@H](CCCCN)NC(=O)[C@H](CO)NC(=O)[C@H](Cc1ccc(O)cc1)NC(=O)[C@H](CC(=O)O)NC(=O)[C@H](CO)NC(=O)[C@@H](NC(=O)[C@H](Cc1ccccc1)NC(=O)[C@@H](NC(=O)CNC(=O)[C@H](CCC(N)=O)NC(=O)C(C)(C)NC(=O)[C@@H](N)Cc1c[nH]cn1)[C@@H](C)O)[C@@H](C)O)C(=O)N[C@@H](CC(=O)O)C(=O)N[C@@H](C)C(=O)N[C@@H](CCCNC(=N)N)C(=O)N[C@@H](C)C(=O)N[C@@H](C)C(=O)N[C@@H](CCC(N)=O)C(=O)N[C@@H](Cc1ccc(CNC(=O)COCCOCCNC(=O)COCCOCCNC(=O)COCCOCCNC(=O)CC[C@H](NC(=O)CCCCCCCCCCCCCCCCC(=O)O)C(=O)O)cc1)C(=O)N[C@@H](Cc1ccccc1)C(=O)N[C@H](C(=O)N[C@@H](CCC(N)=O)C(=O)N[C@@H](Cc1c[nH]c2ccccc12)C(=O)N[C@@H](CC(C)C)C(=O)N[C@@H](CC(C)C)C(=O)N[C@@H](CC(=O)O)C(=O)N[C@H](C(N)=O)[C@@H](C)O)C(C)C` [TP679] (H-H[Aib]QGTFTSDYSKYLDARAAQ[Phe(4-CH2NH2)]([AEEA-AEEA-AEEA-γGlu-C18 diacid])FVQWLLDT-NH2; N-terminus assumed), for which the “hGCGR/hGLP1R (hTone)” value on human GCGR worked out at 0.7. Further, the figures for the EC50 at human GCGR (setting [2]), at human GLP1R (setting [4]) and at human GLP1R (setting [3]) were under 5 nM, 0.18 nM and under 5 nM, respectively.
For `CC(C)C[C@H](NC(=O)[C@H](Cc1ccc(O)cc1)NC(=O)[C@H](CCCCN)NC(=O)[C@H](CO)NC(=O)[C@H](Cc1ccc(O)cc1)NC(=O)[C@H](CC(=O)O)NC(=O)[C@H](CO)NC(=O)[C@@H](NC(=O)[C@H](Cc1ccccc1)NC(=O)[C@@H](NC(=O)CNC(=O)[C@H](CCC(N)=O)NC(=O)C(C)(C)NC(=O)[C@@H](N)Cc1c[nH]cn1)[C@@H](C)O)[C@@H](C)O)C(=O)N[C@@H](CC(=O)O)C(=O)N[C@@H](C)C(=O)N[C@@H](CCCNC(=N)N)C(=O)N[C@@H](C)C(=O)N[C@@H](C)C(=O)N[C@@H](CCC(N)=O)C(=O)N[C@@H](CC(=O)O)C(=O)N[C@@H](Cc1ccccc1)C(=O)N[C@H](C(=O)N[C@@H](CCCCNC(=O)COCCOCCNC(=O)COCCOCCNC(=O)COCCOCCNC(=O)CC[C@H](NC(=O)CCCCCCCCCCCCCCCCC(=O)O)C(=O)O)C(=O)N[C@@H](Cc1c[nH]c2ccccc12)C(=O)N[C@@H](CC(C)C)C(=O)N[C@@H](CCS(C)(=O)=O)C(=O)N[C@@H](CC(=O)O)C(=O)N[C@H](C(N)=O)[C@@H](C)O)C(C)C` [TP680] (H-H[Aib]QGTFTSDYSKYLDARAAQDFVK([AEEA-AEEA-AEEA-γGlu-C18 diacid])WL[Met(O2)]DT-NH2; N-terminus assumed), the “hGCGR/hGLP1R (hTone)” value at human GCGR stood at 3.0. The EC50 at human GCGR (setting [2]) was under 5 nM; at human GLP1R (setting [4]), 0.19 nM; at human GLP1R (setting [3]), under 5 nM.
Turning to `CC(C)C[C@H](NC(=O)[C@H](Cc1ccc(O)cc1)NC(=O)[C@H](CCCCN)NC(=O)[C@H](CO)NC(=O)[C@H](Cc1ccc(O)cc1)NC(=O)[C@H](CC(=O)O)NC(=O)[C@H](CO)NC(=O)[C@@H](NC(=O)[C@H](Cc1ccccc1)NC(=O)[C@@H](NC(=O)CNC(=O)[C@H](CCC(N)=O)NC(=O)C(C)(C)NC(=O)[C@@H](N)Cc1c[nH]cn1)[C@@H](C)O)[C@@H](C)O)C(=O)N[C@@H](CC(=O)O)C(=O)N[C@@H](C)C(=O)N[C@@H](CCCNC(=N)N)C(=O)N[C@@H](C)C(=O)N[C@@H](C)C(=O)N[C@@H](CCC(N)=O)C(=O)N[C@@H](CCCCNC(=O)COCCOCCNC(=O)COCCOCCNC(=O)CC[C@H](NC(=O)CCCCCCCCCCCCCCCCC(=O)O)C(=O)O)C(=O)N[C@@H](Cc1ccccc1)C(=O)N[C@H](C(=O)N[C@@H](CCC(N)=O)C(=O)N[C@@H](Cc1c[nH]c2ccccc12)C(=O)N[C@@H](CC(C)C)C(=O)N[C@@H](CCS(C)(=O)=O)C(=O)N[C@@](C)(CC(=O)O)C(=O)N[C@H](C(N)=O)[C@@H](C)O)C(C)C` [TP681] (H-H[Aib]QGTFTSDYSKYLDARAAQK([AEEA-AEEA-γGlu-C18 diacid])FVQWL[Met(O2)][αMeD]T-NH2; N-terminus assumed), the EC50 on human GCGR (setting [1]) was 0.27 nM; on human GCGR (setting [2]), under 5 nM; at human GLP1R (setting [3]), under 5 nM. For the same compound, the “hGCGR/hGLP1R (hTone)” value on human GCGR worked out at 1.8.
Turning to `CC(C)C[C@H](NC(=O)[C@H](CCCCN)NC(=O)[C@H](CCCCN)NC(=O)[C@H](CO)NC(=O)[C@H](Cc1ccc(O)cc1)NC(=O)[C@H](CCC(=O)O)NC(=O)[C@H](CO)NC(=O)[C@@H](NC(=O)[C@H](Cc1ccccc1)NC(=O)[C@@H](NC(=O)CNC(=O)[C@H](CCC(N)=O)NC(=O)C(C)(C)NC(=O)[C@@H](N)Cc1c[nH]cn1)[C@@H](C)O)[C@@H](C)O)C(=O)N[C@@H](CC(=O)O)C(=O)N[C@@H](C)C(=O)N[C@@H](CCCNC(=N)N)C(=O)N[C@@H](C)C(=O)N[C@@H](C)C(=O)N[C@@H](CCC(N)=O)C(=O)N[C@@H](CC(=O)O)C(=O)N[C@@H](Cc1ccccc1)C(=O)N[C@H](C(=O)N[C@@H](CCCCNC(=O)COCCOCCNC(=O)COCCOCCNC(=O)CC[C@H](NC(=O)CCCCCCCCCCCCCCCCC(=O)O)C(=O)O)C(=O)N[C@@H](Cc1c[nH]c2ccccc12)C(=O)N[C@@H](CC(C)C)C(=O)N[C@@H](CCS(C)(=O)=O)C(=O)N[C@@H](CC(=O)O)C(=O)N[C@H](C(N)=O)[C@@H](C)O)C(C)C` [TP699] (H-H[Aib]QGTFTSEYSKKLDARAAQDFVK([AEEA-AEEA-γGlu-C18 diacid])WL[Met(O2)]DT-NH2), the concentration giving a half-maximal response (EC50) at human GCGR (setting [1]) and at human GLP1R (setting [4]) was over 19.8 nM in each case.
